Test results: patent US20120225862A1, “HETEROARYL BENZAMIDES, COMPOSITIONS AND METHODS OF USE” (AUCKLAND UNIVSERVICES LIMITED, priority 2009, published 2012)

What was measured:
DAPK1 = target: T1, DAPK1 (Homo sapiens, UniProt P53355); assay: In vitro kinase activity (Millipore KinaseProfiler): DAPK1; assay type: biochemical; conditions: no head or unit printed
T1 construct: purchased Millipore (KinaseProfiler service)
Method: (§1) All cells were grown in DMEM+10% FCS. ACHN and ACHN shVHL were a kind gift from George V. Thomas (UCLA). HIF overexpressing clones were described previously. Transfection of RNA oligos were performed with DnarmaFECT Reagent 1 (Dharmcon), according to manufacturer's directions. ON-TARGETplus SMART pools against HIF-1β/ARNT were purchased from Dharmacon. Glut1 was detected with anti-GLUT1 antibody from NeoMarkers/LabVision/Fisher. Pyruvate/lactate levels and hexokinase activity were both measured by fluorometric assay (BioVision and Sigma-Aldrich, respectively). ATP levels were measured by bioluminescence assay (ATP Determination Kit from Molecular Probes/Invitrogen). In vitro kinase activities were performed by Millipore KinaseProfiler. Affi-Gel 10 (BioRad) activated affinity media was coupled to analogs to generate immobilized affinity linkers.
(§2) We next wanted to investigate the differential glucose uptake between RCCs with and without VHL treated with compound 47 that subsequently lead to the selective death of VHL-deficient cells. We first examined the message levels of the two main glucose transporters, GLUT1 and GLUT2 by quantitative real-time PCR. GLUT1 is an inducible, high-affinity glucose transporter, while GLUT2 is the glucose transporter responsible for basal glucose uptake. […] Cells deficient in VHL had very low levels of GLUT2 that could barely be detected (FIG. 3J). […]

IKKα = target: T2, IKKα (Homo sapiens, UniProt O15111); assay: In vitro kinase activity (Millipore KinaseProfiler): IKKα; assay type: biochemical; conditions: no head or unit printed
T2 construct: purchased Millipore (KinaseProfiler service)
Method: as §1, §2

cSRC = target: T3, cSRC (Homo sapiens, UniProt P12931); assay: In vitro kinase activity (Millipore KinaseProfiler): cSRC; assay type: biochemical; conditions: no head or unit printed
T3 construct: purchased Millipore (KinaseProfiler service)
Method: as §1, §2

[1] = test system: RCC4/VHL cell clones overexpressing HIF-2α; assay: Sensitivity of RCC4/VHL clones overexpressing HIF; assay type: cell-based, human; conditions: two HIF-overexpressing RCC4/VHL clones, FIG. 2G
Method: As the hypoxia-inducible factor family of transcription factors are the best-characterized VHL targets, we next examined whether toxicity was HIF-dependent. A non-degradable, constitutively active HIF was overexpressed in RCC4/VHL cells. Two individual HIF-overexpressing clones were tested for their sensitivity to compound 47. […] Furthermore, the sensitivity of RCCs that lack functional VHL to compound 47 is directly linked to the aberrant upregulation of HIF.

RCC4 and RCC4/VHL cells = assay: Oxygen consumption (Oxytherm electrode); assay type: cell-based, human; conditions: 5 μM, FIG. 3F
Method: Following treatment with vehicle or drug, cells were trypsinized, suspended at 5 million cells per ml in DMEM+10% FCS, and oxygen consumption was measured in 0.5 ml volume using an Oxytherm electrode unit (Hansatech).

CDK6/cyclinD3 = target: T4, CDK6/cyclinD3 (Homo sapiens, UniProt Q00534); assay: In vitro kinase activity (Millipore KinaseProfiler): CDK6/cyclinD3; assay type: biochemical; conditions: no head or unit printed
T4 construct: purchased Millipore (KinaseProfiler service)
Method: as §1, §2

PI3K = assay: In vitro kinase activity (Millipore KinaseProfiler): PI3K; assay type: biochemical; conditions: no head or unit printed
Method: as §1, §2

CaMKI = target: T5, CaMKI (Homo sapiens, UniProt Q14012); assay: In vitro kinase activity (Millipore KinaseProfiler): CaMKI; assay type: biochemical; conditions: no head or unit printed
T5 construct: purchased Millipore (KinaseProfiler service)
Method: as §1, §2

IR = target: T6, IR (Homo sapiens, UniProt P06213); assay: In vitro kinase activity (Millipore KinaseProfiler): IR; assay type: biochemical; conditions: no head or unit printed
T6 construct: purchased Millipore (KinaseProfiler service)
Method: as §1, §2

MSK1 = target: T7, MSK1 (Homo sapiens, UniProt O75582); assay: In vitro kinase activity (Millipore KinaseProfiler): MSK1; assay type: biochemical; conditions: no head or unit printed
T7 construct: purchased Millipore (KinaseProfiler service)
Method: as §1, §2

CK1γ1 = target: T8, CK1γ1 (Homo sapiens, UniProt Q9HCP0); assay: In vitro kinase activity (Millipore KinaseProfiler): CK1γ1; assay type: biochemical; conditions: no head or unit printed
T8 construct: purchased Millipore (KinaseProfiler service)
Method: as §1, §2

RCC4 = assay: Necrotic cell death by trypan blue, RCC4; assay type: cell-based, human; conditions: 3 days, 5 μM, FIG. 2F
Method: For 2,3-bis[2-methoxy-4-nitro-5-sulfophenyl]-2H-tetrazolium-5-carboxanilide (XTT) assays, five thousand cells were plated in 96-well plates. The next day, vehicle (DMSO) or drug was added by serial dilution. Four days later, media were aspirated, XTT solution (0.3 mg/ml of XTT (Sigma), 2.65 mg/ml N-methyl dibenxopyrazine methyl sulfate (Simga) in phenol red-free media) was added, and the plates were incubated at 37° C. for 1-2 hours. Metabolism of XTT was quantified by measuring the absorbance at 450 nm. IC50s were calculated using linear interpolation. For clonogenic survival assays, three hundred cells were plated per 60 mm tissue culture dish. The cells were allowed to attach overnight and then treated with vehicle or drug for 14 days. Colonies were fixed and stained with crystal violet (0.1% crystal violet in 95% ethanol). All conditions were measured in triplicate and each experiment was done in duplicate or triplicate. To determine necrosis, cells were treated with drug for a given time point. Media and cells were collected, centrifugated, and resuspended in 0.4% trypan blue (Invitrogen). Live and dead cells were counted on a hematocytometer.

JNK1α1 = target: T9, JNK1α1 (Homo sapiens, UniProt P45983); assay: In vitro kinase activity (Millipore KinaseProfiler): JNK1α1; assay type: biochemical; conditions: no head or unit printed
T9 construct: purchased Millipore (KinaseProfiler service)
Method: as §1, §2

GSK3α = target: T10, GSK3α (Homo sapiens, UniProt P49840); assay: In vitro kinase activity (Millipore KinaseProfiler): GSK3α; assay type: biochemical; conditions: no head or unit printed
T10 construct: purchased Millipore (KinaseProfiler service)
Method: as §1, §2

T6 sequence (P06213 28-1382): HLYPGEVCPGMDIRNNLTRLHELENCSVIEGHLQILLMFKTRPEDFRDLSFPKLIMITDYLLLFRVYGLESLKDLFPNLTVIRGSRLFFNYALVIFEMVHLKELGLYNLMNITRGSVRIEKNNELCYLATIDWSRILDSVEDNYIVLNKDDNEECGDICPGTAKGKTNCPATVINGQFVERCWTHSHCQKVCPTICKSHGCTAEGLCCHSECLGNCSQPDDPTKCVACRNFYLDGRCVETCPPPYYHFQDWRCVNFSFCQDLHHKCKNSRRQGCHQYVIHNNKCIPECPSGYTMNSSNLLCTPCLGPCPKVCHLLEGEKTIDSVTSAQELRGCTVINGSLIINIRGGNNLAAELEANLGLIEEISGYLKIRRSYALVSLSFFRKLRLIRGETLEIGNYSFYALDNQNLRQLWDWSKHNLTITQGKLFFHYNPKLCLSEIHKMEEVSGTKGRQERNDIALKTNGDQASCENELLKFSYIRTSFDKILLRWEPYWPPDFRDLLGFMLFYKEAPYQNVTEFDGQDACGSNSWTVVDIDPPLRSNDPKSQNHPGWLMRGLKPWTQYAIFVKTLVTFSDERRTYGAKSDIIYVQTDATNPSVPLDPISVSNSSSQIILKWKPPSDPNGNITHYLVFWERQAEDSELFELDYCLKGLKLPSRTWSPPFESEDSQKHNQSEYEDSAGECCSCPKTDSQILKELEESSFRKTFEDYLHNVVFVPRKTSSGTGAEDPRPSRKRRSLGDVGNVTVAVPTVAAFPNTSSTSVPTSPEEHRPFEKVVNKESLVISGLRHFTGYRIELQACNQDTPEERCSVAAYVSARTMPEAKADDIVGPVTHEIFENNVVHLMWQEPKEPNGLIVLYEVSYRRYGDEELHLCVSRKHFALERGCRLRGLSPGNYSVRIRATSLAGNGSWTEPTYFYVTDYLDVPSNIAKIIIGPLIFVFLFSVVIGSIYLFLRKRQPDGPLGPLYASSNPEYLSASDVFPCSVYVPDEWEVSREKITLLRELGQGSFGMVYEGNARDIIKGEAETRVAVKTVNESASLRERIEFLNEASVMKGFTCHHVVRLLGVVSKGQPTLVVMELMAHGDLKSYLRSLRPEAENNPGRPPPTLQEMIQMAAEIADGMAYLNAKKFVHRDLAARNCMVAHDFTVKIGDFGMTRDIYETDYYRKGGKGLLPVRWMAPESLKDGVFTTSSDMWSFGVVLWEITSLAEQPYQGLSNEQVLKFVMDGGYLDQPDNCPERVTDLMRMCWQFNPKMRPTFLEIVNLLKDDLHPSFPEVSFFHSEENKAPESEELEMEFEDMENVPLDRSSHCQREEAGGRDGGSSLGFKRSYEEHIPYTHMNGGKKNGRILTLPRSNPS
T2 sequence (O15111 whole entry, species assumed): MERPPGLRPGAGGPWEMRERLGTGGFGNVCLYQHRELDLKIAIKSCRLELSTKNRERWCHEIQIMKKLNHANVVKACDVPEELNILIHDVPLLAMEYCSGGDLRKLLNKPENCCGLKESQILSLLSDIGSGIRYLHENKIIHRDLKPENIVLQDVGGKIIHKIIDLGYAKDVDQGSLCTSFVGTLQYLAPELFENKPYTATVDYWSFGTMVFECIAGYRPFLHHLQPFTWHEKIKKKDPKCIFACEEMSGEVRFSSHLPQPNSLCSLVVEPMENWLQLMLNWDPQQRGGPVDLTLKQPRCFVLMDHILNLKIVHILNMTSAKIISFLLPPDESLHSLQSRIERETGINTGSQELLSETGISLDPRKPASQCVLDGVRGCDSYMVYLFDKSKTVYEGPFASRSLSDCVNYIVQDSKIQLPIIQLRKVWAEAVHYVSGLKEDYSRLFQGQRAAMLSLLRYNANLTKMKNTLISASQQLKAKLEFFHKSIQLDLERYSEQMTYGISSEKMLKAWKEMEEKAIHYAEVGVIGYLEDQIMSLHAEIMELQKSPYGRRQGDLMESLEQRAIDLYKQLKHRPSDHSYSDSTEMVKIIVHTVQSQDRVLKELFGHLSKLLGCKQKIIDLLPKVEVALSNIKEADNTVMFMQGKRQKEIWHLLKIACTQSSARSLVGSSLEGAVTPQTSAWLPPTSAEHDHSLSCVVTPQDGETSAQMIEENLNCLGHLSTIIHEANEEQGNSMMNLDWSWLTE
T3 sequence (P12931 whole entry, species assumed): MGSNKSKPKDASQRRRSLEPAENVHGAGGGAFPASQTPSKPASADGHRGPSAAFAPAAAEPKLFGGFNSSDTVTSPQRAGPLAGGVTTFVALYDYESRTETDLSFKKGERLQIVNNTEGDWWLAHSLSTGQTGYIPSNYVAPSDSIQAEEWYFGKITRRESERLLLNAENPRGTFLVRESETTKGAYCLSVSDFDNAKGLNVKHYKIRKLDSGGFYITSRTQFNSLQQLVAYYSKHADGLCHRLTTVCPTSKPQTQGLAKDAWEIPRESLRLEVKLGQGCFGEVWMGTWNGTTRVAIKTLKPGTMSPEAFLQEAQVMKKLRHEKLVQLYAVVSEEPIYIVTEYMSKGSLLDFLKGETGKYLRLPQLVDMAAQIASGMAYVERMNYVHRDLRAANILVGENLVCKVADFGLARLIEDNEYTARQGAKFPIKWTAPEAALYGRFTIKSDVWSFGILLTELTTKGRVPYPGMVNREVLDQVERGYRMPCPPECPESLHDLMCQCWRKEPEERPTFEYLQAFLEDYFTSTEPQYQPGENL
T7 sequence (O75582 whole entry, species assumed): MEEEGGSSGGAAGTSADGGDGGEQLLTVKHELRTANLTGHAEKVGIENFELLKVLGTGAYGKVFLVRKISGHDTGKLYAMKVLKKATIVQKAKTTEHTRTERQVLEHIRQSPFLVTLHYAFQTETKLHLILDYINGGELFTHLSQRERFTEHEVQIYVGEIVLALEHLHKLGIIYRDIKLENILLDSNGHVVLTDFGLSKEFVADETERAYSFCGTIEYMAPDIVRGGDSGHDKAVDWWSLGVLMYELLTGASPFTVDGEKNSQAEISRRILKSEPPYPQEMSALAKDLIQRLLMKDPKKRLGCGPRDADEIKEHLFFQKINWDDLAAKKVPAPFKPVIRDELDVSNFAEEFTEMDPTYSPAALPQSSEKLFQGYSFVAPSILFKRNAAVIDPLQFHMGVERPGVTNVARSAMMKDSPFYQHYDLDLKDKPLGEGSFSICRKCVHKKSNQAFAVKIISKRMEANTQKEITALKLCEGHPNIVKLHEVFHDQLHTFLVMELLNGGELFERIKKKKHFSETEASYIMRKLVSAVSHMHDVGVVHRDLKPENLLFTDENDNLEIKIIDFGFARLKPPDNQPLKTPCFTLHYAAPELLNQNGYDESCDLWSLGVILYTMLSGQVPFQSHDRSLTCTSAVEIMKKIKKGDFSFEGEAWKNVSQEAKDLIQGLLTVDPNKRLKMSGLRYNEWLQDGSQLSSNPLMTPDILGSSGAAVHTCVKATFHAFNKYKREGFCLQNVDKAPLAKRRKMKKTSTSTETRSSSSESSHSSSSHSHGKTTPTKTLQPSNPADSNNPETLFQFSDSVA
T4 sequence (Q00534 whole entry, species assumed): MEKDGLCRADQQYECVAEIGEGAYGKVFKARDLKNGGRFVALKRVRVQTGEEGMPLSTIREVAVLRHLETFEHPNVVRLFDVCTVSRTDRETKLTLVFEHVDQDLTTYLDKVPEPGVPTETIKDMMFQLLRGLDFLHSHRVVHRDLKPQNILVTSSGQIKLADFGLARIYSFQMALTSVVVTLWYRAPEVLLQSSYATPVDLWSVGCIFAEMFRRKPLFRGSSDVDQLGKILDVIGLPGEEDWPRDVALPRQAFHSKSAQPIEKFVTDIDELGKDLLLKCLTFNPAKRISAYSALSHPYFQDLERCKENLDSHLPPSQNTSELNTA
T4 sequence (P30281 whole entry partner, species assumed): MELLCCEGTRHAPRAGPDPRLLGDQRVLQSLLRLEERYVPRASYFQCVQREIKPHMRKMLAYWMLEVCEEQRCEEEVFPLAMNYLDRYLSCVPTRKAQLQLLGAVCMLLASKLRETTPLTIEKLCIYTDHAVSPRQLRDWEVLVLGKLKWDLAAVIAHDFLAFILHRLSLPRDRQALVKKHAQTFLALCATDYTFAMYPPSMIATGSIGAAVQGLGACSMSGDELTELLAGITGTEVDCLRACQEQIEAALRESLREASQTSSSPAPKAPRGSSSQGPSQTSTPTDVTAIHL
T8 sequence (Q9HCP0 whole entry): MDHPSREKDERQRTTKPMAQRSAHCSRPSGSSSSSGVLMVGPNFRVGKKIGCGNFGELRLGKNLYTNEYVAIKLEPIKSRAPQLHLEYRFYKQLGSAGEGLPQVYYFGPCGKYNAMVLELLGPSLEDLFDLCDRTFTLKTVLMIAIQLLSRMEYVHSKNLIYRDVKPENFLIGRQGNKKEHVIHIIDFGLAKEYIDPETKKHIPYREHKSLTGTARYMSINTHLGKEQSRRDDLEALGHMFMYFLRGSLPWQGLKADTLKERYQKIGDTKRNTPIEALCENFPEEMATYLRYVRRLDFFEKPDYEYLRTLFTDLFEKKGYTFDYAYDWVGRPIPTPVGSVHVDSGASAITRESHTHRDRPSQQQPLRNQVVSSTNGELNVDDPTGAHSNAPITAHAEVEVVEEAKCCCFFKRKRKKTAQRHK
T9 sequence (P45983 1-384 isoform P45983-2, species assumed): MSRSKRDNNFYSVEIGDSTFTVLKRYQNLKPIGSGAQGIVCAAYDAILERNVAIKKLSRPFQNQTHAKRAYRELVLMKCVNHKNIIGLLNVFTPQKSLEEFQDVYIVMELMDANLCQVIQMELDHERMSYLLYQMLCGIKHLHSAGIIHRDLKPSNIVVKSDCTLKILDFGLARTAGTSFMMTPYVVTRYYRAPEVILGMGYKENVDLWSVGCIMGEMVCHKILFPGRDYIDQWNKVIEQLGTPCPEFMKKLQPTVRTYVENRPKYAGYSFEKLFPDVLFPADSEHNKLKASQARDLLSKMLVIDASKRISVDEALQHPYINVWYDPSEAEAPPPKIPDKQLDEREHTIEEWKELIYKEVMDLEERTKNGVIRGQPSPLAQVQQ

Compound: CC(C)(C)c1ccc(S(=O)(=O)NCc2ccc(C(=O)Nc3cccnc3)cc2)cc1 [Example 38, 4-((4-tert-Butylphenylsulfonamido)methyl)-N-(pyridin-3-yl)benzamide]
- DAPK1 kinase activity (DAPK1): 92%
- IKKα kinase activity (IKKα): 102
- cSRC kinase activity (cSRC): 104%
- effect of ectopic HIF expression in wild-type VHL cells on sensitivity [1]: sensitized these cells
- oxygen consumption, treated vs untreated cells (RCC4 and RCC4/VHL cells): no difference in oxygen consumption
- CDK6/cyclinD3 kinase activity (CDK6/cyclinD3): 105
- PI3K kinase activity (PI3K): 97
- CaMKI kinase activity (CaMKI): 87
- IR kinase activity (IR): 121%
- MSK1 kinase activity (MSK1): 107
- CK1γ1 kinase activity (CK1γ1): 85%
- RCC4 cells exhibiting necrotic cell death (RCC4): greater than 80%
- JNK1α1 kinase activity (JNK1α1): 101
- GSK3α kinase activity (GSK3α): 134
